Results as given in ChEMBL document CHEMBL3588762, “A practical glycosyltransferase assay for the identification of new inhibitor chemotypes” (Medchemcomm, 2014).
Calls of active or inactive are those of the source. No cut-off for these calls is given here.

Legend:
[1] = biological target: T1, Alpha 1,4 galactosyltransferase (Neisseria meningitidis) (UniProt Q8KHJ3); experiment: Inhibition of Neisseria meningitidis alpha-1,4-galactosyltransferase LgtC at 90% donor UDP-Gal turn over rates by inorganic phosphate release from UDP and malachite green dye based inorganic phosphate detection based assay
T1 sequence (whole entry): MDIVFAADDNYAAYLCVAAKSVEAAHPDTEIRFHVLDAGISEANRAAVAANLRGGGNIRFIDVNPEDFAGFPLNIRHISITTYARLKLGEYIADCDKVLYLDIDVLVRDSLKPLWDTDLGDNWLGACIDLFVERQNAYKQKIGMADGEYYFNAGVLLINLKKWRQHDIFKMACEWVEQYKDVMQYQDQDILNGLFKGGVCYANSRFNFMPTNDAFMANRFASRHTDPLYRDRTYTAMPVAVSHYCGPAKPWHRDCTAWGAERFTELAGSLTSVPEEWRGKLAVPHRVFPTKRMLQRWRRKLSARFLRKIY

[2] = biological target: T2, Beta-1,4-galactosyltransferase 1 (Bos taurus) (UniProt P08037); experiment: Inhibition of bovine beta-1,4-GalT […] at 10% to 50 donor UDP-Gal turn over rates by inorganic phosphate release from UDP and malachite green dye based inorganic phosphate detection based assay
T2 sequence (whole entry): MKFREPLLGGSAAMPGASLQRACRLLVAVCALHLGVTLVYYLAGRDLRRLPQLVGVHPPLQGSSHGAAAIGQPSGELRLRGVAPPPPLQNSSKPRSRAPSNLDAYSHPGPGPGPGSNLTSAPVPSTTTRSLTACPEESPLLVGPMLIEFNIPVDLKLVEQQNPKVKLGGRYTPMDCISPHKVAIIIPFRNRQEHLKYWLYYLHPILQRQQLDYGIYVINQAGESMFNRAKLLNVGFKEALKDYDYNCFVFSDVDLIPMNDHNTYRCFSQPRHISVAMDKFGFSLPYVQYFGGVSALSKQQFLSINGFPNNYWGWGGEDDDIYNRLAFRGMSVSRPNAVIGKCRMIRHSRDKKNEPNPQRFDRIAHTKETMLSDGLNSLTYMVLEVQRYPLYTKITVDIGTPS

[3] = biological target: T1, Alpha 1,4 galactosyltransferase (Neisseria meningitidis); experiment: Inhibition of Neisseria meningitidis alpha-1,4-galactosyltransferase LgtC at 50% donor UDP-Gal turn over rates by inorganic phosphate release from UDP and malachite green dye based inorganic phosphate detection based assay
[4] = biological target: T1, Alpha 1,4 galactosyltransferase (Neisseria meningitidis); experiment: Inhibition of Neisseria meningitidis alpha-1,4-galactosyltransferase LgtC at 20% donor UDP-Gal turn over rates by inorganic phosphate release from UDP and malachite green dye based inorganic phosphate detection based assay
[5] = biological target: T1, Alpha 1,4 galactosyltransferase (Neisseria meningitidis); experiment: Activity of Neisseria meningitidis alpha-1,4-galactosyltransferase LgtC assessed as compound turn over rates at 50 to 100 uM incubated for 20 mins by inorganic phosphate release and malachite green dye based inorganic phosphate detection based assay
[6] = biological target: T3, Alpha 1,4 galactosyltransferase (Neisseria meningitidis, UniProt Q8KHJ3); experiment: Inhibition of Neisseria meningitidis alpha-1,4-galactosyltransferase LgtC by inorganic phosphate release from UDP and malachite green dye based inorganic phosphate detection based assay
T3 sequence (Q8KHJ3 whole entry): T1 sequence (whole entry)

[7] = biological target: T4, Beta-1,4-galactosyltransferase 1 (Bos taurus, UniProt P08037); experiment: Inhibition of bovine beta-1,4-GalT […] at 29% donor UDP-Gal turn over rates by inorganic phosphate release from UDP and malachite green dye based inorganic phosphate detection based assay
T4 sequence (P08037 whole entry): T2 sequence (whole entry)

[8] = biological target: Intestinal-type alkaline phosphatase (Bos taurus) (UniProt P19111); experiment: Activity of calf intestinal phosphatase assessed as compound turn over rates by inorganic phosphate release and malachite green dye based inorganic phosphate detection based assay
Intestinal-type alkaline phosphatase (Bos taurus), sequence (P19111 20-506 limits assumed): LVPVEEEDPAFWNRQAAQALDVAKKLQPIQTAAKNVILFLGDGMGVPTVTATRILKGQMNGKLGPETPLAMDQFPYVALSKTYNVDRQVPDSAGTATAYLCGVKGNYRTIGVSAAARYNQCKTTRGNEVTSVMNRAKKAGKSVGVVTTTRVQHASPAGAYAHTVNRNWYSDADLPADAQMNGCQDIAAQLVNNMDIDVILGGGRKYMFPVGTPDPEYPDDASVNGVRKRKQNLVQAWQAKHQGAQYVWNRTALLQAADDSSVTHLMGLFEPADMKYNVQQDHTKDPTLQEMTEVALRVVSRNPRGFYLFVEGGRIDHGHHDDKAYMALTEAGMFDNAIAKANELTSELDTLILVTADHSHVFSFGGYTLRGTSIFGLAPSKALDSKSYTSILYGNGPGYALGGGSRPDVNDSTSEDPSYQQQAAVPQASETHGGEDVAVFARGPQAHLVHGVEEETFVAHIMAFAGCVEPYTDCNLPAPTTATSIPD

Row | inhibition [1] | inhibition [2] | inhibition [3] | inhibition [4] | Activity [5] | IC50 [6] | IC50 [7] | Activity [8] | Structure (SMILES)
1 | inactive | inactive | inactive | inactive |  |  |  |  | O=c1ccn([C@@H]2O[C@H](CO)[C@@H](O)[C@H]2O)c(=O)[nH]1
2 |  |  |  |  | inactive | 0.9 µM | 9 µM | Active | O=Cc1ccc(-c2cn([C@@H]3O[C@H](COP(=O)(O)OP(=O)(O)O[C@H]4O[C@H](CO)[C@H](O)[C@H](O)[C@H]4O)[C@@H](O)[C@H]3O)c(=O)[nH]c2=O)s1
3 |  |  |  |  |  |  |  | Active | O=c1ccn([C@@H]2O[C@H](COP(=O)(O)OP(=O)(O)O)[C@@H](O)[C@H]2O)c(=O)[nH]1
